These results are taken from patent publication US20230031406A1, “COMPOUNDS AND COMPOSITIONS FOR TREATING CONDITIONS ASSOCIATED WITH NLRP ACTIVITY” (Novartis AG, priority 2018, published 2023).

In general, IC50 refers to the concentration that gives 50% inhibition.

The assay deals with PMA-differentiated THP-1 cells. Nature of the assay: IL-1β production in PMA-differentiated THP-1 cells stimulated with gramicidin (hTHP-1 assay containing 2% fetal bovine serum; Procedures 1 and 2). The format is cell-based, human. Particulars: 2% fetal bovine serum. Put shortly: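 Compound titrations in 0.37% final DMSO were added to THP-1 cells that had been plated after 16-18 h PMA treatment, 50,000 per well in 2% FBS. One hour later the cells received gramicidin (5 μM, 2 h) and were centrifuged. HTRF detected IL-1β in the collected supernatants.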

[1] abbreviates: Table B1, class symbols, read-out: Average IC50 of compounds in hTHP-1 assay: hTHP-1 IC50.
Setting [2] is: Homo sapiens, THP-1, Table B3, hTHP-1 assay, class symbols, read-out: IC50.
Setting [3] is: Homo sapiens, THP-1, Table B2, class symbols, read-out: hTHP-1 IC50.
The mark [4] stands for this setting: Homo sapiens, THP-1, Table B3, hTHP-1 assay, numeric values, read-out: IC50.
The mark [5] stands for this setting: Homo sapiens, THP-1, Table B1, class symbols, read-out: Average IC50 of compounds in hTHP-1 assay: hTHP-1 IC50.
Where [6] appears, read: Table B2, class symbols, read-out: hTHP-1 IC50.

Read-outs that look alike come from different tables or passages of the source.

In the case of `CCn1cc(F)c(S(N)(=O)=NC(=O)Nc2c3c(nc4c2CCC42CC2)CCC3)n1` (single isomer, unassigned) [Example 671, (R) or (S)-1-ethyl-4-fluoro-N′-((1′,5′,6′,7′-tetrahydro-2′H-spiro[cyclopropane-1,3′-dicyclopenta[b,e]pyridin]-8′-yl)carbamoyl)-1H-pyrazole-3-sulfonimidamide], the 50% inhibitory concentration (IC50) (Table B3, hTHP-1 assay, class symbols, read-out: IC50) was 0.008 to 0.04 µM.
As to `Cc1c(C2CC2)nc2c(c1NC(=O)N=S(N)(=O)c1sc(C(C)(C)O)cc1F)CCC2` (single isomer, unassigned) [Compound 174a, (R) or (S)-N′-((2-cyclopropyl-3-methyl-6,7-dihydro-5H-cyclopenta[b]pyridin-4-yl)carbamoyl)-3-fluoro-5-(2-hydroxypropan-2-yl)thio-phene-2-sulfonimidamide], under setting [1], the IC50 was 5 to 30 µM.
Still for that read-out and setting: the result for `CC1CCc2c1nc1c(c2NC(=O)N=S(N)(=O)c2sc(C(C)(C)O)cc2F)CCC1` (single isomer, unassigned) [Compound 103ab, (S,S) or (S,R)-3-fluoro-5-(2-hydroxypropan-2-yl)-N′-((3-methyl-1,2,3,5,6,7-hexahydrodicyclo-penta[b,e]pyridin-8-yl)carbamoyl)thiophene-2-sulfonimidamide] reads 5 to 30 µM.
For `CCn1cc(F)c(S(N)(=O)=NC(=O)Nc2c3c(nc4c2CC[C@@H]4C)CCC3)n1` (stereo partly drawn) [Example 616, 1-Ethyl-4-fluoro-N′-(((S)-3-methyl-1,2,3,5,6,7-hexahydrodicyclopenta[b,e]pyridin-8-yl)carbamoyl)-1H-pyrazole-3-sulfonimidamide], under setting [2], the IC50 is 0.2 to 1 µM.
For the compound `CC(C)c1cc(NC(=O)N=S(N)(=O)c2cc(C(C)(C)O)cs2)c2c(n1)CCC2` (single isomer, unassigned) [Compound 182b, (R) or (S)-4-(2-Hydroxypropan-2-yl)-N′-((2-isopropyl-6,7-dihydro-5H-cyclopenta[b]pyridin-4-yl)carbamoyl) thiophene-2-sulfonimidamide], under setting [3], the half-maximal inhibitory concentration (IC50) lay in the range of 5 to 30 µM.
On to `CC1CCc2c1nc1c(c2NC(=O)N=S(N)(=O)c2cc(C(C)(C)O)cs2)CCC1` (single isomer, unassigned) [Compound 141bb, (S,R) or (S,S)-4-(2-hydroxypropan-2-yl)-N′-((3-methyl-1,2,3,5,6,7-hexahy-drodicyclopenta[b,e]pyridin-8-yl)carbamoyl)thiophene-2-sulfonimidamide], for which, under setting [1], the concentration for half-maximal inhibition (IC50) lay within 5 to 30 µM.
On to `Cc1c(C2CC2)nc2c(c1NC(=O)N=S(N)(=O)c1cc(C(C)(C)O)cs1)CCC2` (single isomer, unassigned) [Compound 175a, (R) or (S)-N′-((2-cyclopropyl-3-methyl-6,7-dihydro-5H-cyclopenta[b]pyridin-4-yl)carbamoyl)-4-(2-hydroxypropan-2-yl)thiophene-2-sulfonimidamide], for which, under setting [1], the IC50 lay in the range of 5 to 30 µM.
The same measure, in the same setting: the same measure for `CC(C)(O)c1cc(S(N)(=O)=NC(=O)Nc2c3c(nc4c2CCC4)CCC3)nn1-c1ccccc1` (single isomer, unassigned) [Compound 159a, (R) or (S)-N′-((1,2,3,5,6,7-hexahydrodicyclo-penta[b,e]pyridin-8-yl)carbamoyl)-5-(2-hydroxypropan-2-yl)-1-phenyl-1H-pyrazole-3-sulfonimidamide]: 1 to 5 µM.
With `CC(C)n1nc(S(N)(=O)=NC(=O)Nc2c3c(nc4c2CCC42CC2)CCC3)cc1CO` (single isomer, unassigned) [Example 642, (S) or (R)-5-(hydroxymethyl)-1-isopropyl-N′-((1′,5′,6′,7′-tetrahydro-2′H-spiro[cyclopropane-1,3′-dicyclopenta[b,e]pyridin]-8′-yl)carbamoyl)-1H-pyrazole-3-sulfonimidamide], the 50% inhibitory concentration (IC50) under setting [4] was greater than 30 µM.
Regarding `CC(C)(O)c1cnc(S(N)(=O)=NC(=O)Nc2c3c(nc4c2CCC4)CCC3)s1` (single isomer, unassigned) [Compound 167a, (S) or (R)-N′-((1,2,3,5,6,7-hexahydrodicyclo-penta[b,e]pyridin-8-yl)carbamoyl)-5-(2-hydroxypropan-2-yl)thiazole-2-sulfonimidamide], the IC50 under setting [1] lay within 5 to 30 µM.
Take `CC1(C)CCc2c1nc1c(c2NC(=O)N=[S@@](N)(=O)c2sc(C(O)(CO)CO)nc2CO)CCC1` [Compound 985a]: the IC50 under setting [2] lay in the range of 1 to 5 µM.
As to `CCc1c(C2CC2)nc2c(c1NC(=O)N=S(N)(=O)c1cc(C(C)(C)O)cs1)CCC2` (stereo not drawn) [Compound 181, N′-((2-cyclopropyl-3-ethyl-6,7-dihydro-5H-cyclopenta[b]pyridin-4-yl)carbamoyl)-4-(2-hydroxypropan-2-yl)thiophene-2-sulfonimidamide], the concentration for half-maximal inhibition (IC50) under setting [5] lay in the range of 0.2 to 1 µM.
Regarding `CCn1cc(F)c(S(N)(=O)=NC(=O)Nc2c3c(nc4c2CCC4)CCC3)n1` (stereo not drawn) [Example 736, 1-Ethyl-4-fluoro-N′-((1,2,3,5,6,7-hexahydrodicyclopenta[b,e]pyridin-8-yl)carbamoyl)-1H-pyrazole-3-sulfonimidamide], the 50% inhibitory concentration (IC50) (Homo sapiens, THP-1, Table B4, class symbols, read-out: hTHP-1 IC50) fell in the range of 0.2 to 1 µM.
Turning to `CC(C)(O)c1cncc(S(N)(=O)=NC(=O)Nc2c3c(nc4c2CCC4(C)C)CCC3)c1` (single isomer, unassigned) [Compound 684a, (R) or (S)-N′-((3,3-dimethyl-1,2,3,5,6,7-hexahydrodicyclopenta [b,e]pyridin-8-yl)carbamoyl)-5-(2-hydroxypropan-2-yl)pyridine-3-sulfonimidamide], under setting [6], the IC50 was 0.04 to 0.2 µM.
Take `Cc1c(C(=O)O)nc2c(c1NC(=O)N=S(N)(=O)c1cnc(C(C)(C)O)s1)CCC2` (stereo not drawn) [Example 636, 4-(3-(Amino(2-(2-hydroxypropan-2-yl)thiazol-5-yl)(oxo)-l6-sulfaneylidene)ureido)-3-methyl-6,7-dihydro-5H-cyclopenta[b]pyridine-2-carboxylic acid]: the IC50 under setting [4] was greater than 30 µM.
Turning to `CC(C)n1ccc(S(N)(=O)=NC(=O)Nc2c3c(nc4c2CCC4)CCC3)n1` (stereo not drawn) [Compound 119, N′-((1,2,3,5,6,7-hexahydrodicyclopenta[b,e]pyridin-8-yl)carbamoyl)-1-isopropyl-1H-pyrazole-3-sulfonimidamide], the half-inhibitory concentration (IC50) under setting [5] is 1 to 5 µM.
As for `Cc1c(C(F)(F)F)nc2c(c1NC(=O)N=S(N)(=O)c1nn(-c3ccccc3)cc1F)CCC2` (single isomer, unassigned) [Example 784, (S) or (R)-4-fluoro-N′-((3-methyl-2-(trifluoromethyl)-6,7-dihydro-5H-cyclopenta [b]pyridin-4-yl)carbamoyl)-1-phenyl-1H-pyrazole-3-sulfonimidamide], under “Table B4, class symbols, read-out: hTHP-1 IC50”, the IC50 was in the range of 5 to 30 µM.
In the case of `CC1(C)CCc2c1nc1c(c2NC(=O)N=S(N)(=O)c2sc([C@@](C)(O)CO)nc2CO)CCC1` (stereo partly drawn) [Example 599, 2-((S)-1,2-dihydroxypropan-2-yl)-N′-((3,3-dimethyl-1,2,3,5,6,7-hexahydrodicyclopenta[b,e]pyridin-8-yl)carbamoyl)-4-(hydroxymethyl)thiazole-5-sulfonimidamide], under setting [2], the half-inhibitory concentration (IC50) fell in the range of 1 to 5 µM.
Regarding `Cc1c(C2CC2)nc2c(c1NC(=O)N=S(N)(=O)c1ccn(C(F)F)n1)CCC2` (single isomer, unassigned) [Compound 676a, (S) or (R)-N′-((2-cyclopropyl-3-methyl-6,7-dihydro-5H-cyclopenta[b]pyridin-4-yl)carbamoyl)-1-(difluoromethyl)-1H-pyrazole-3-sulfonimidamide], under “Homo sapiens, THP-1, Table B2, numeric bounds, read-out: hTHP-1 IC50”, the IC50 is greater than 30 µM.
As for `CC(C)(O)c1cc(F)c(S(N)(=O)=NC(=O)Nc2c3c(nc4c2CCC42CC2)CCC3)s1` (single isomer, unassigned) [Compound 101b, (R) or (S)-3-fluoro-5-(2-hydroxypropan-2-yl)-N′-((1′,5′,6′,7′-tetrahydro-2′H-spiro[cyclopropane-1,3′-dicyclopenta[b,e]pyridin]-8′-yl)carbamoyl)thiophene-2-sulfonimidamide], the IC50 under setting [1] is 0.008 to 0.04 µM.
Consider `CC(C)(O)c1cc(S(N)(=O)=NC(=O)Nc2c3c(nc4c2CCC4(C)C)CCC3)nn1-c1ccccc1` (stereo not drawn) [Compound 663, N′-((3,3-dimethyl-1,2,3,5,6,7-hexahydrodicyclopenta[b,e]pyridin-8-yl)carbamoyl)-5-(2-hydroxypropan-2-yl)-1-phenyl-1H-pyrazole-3-sulfonimidamide], for which, under setting [3], the IC50 fell in the range of 1 to 5 µM.
For `Cc1c(C(C)C)nc2c(c1NC(=O)N=S(N)(=O)c1cc(C(C)(C)O)cs1)CCC2` (single isomer, unassigned) [Compound 681a, (S) or (R)-4-(2-Hydroxypropan-2-yl)-N′-((2-isopropyl-3-methyl-6,7-dihydro-5H-cyclopenta[b]pyridin-4-yl)carbamoyl) thiophene-2-sulfonimidamide], the IC50 under setting [6] was 1 to 5 µM.
On the same count and under the same terms, the result for `CC(O)c1nc(C(C)(C)O)sc1S(=N)(=O)NC(=O)Nc1c2c(nc3c1CCC3)CCC2` (single isomer, unassigned) [Compound 643b, (S, R/S) or (R, R/S)-N-((1,2,3,5,6,7-hexahydrodicyclopenta [b,e]pyridin-8-yl)carbamoyl)-4-(1-hydroxyethyl)-2-(2-hydroxypropan-2-yl) thiazole-5-sulfonimidamide] reads 5 to 30 µM.
`CC(C)c1cnc(F)c(C(C)C)c1NC(=O)N=S(N)(=O)c1cnc(C(C)(C)O)s1` (stereo not drawn) [Compound 115, N′-((2-fluoro-3,5-diisopropylpyridin-4-yl)carbamoyl)-2-(2-hydroxypropan-2-yl)thiazole-5-sulfonimidamide]: the half-maximal inhibitory concentration (IC50) under setting [5] was in the range of 1 to 5 µM.
